What was measured:
alpha-1A adrenoceptors = biological target: T1, alpha-1A adrenoceptors (Homo sapiens, UniProt P35348); experiment: alpha-1A adrenoceptor partial agonist activity (intrinsic activity and pEC50); assay type: cell-based
T1 sequence (P35348 1-466): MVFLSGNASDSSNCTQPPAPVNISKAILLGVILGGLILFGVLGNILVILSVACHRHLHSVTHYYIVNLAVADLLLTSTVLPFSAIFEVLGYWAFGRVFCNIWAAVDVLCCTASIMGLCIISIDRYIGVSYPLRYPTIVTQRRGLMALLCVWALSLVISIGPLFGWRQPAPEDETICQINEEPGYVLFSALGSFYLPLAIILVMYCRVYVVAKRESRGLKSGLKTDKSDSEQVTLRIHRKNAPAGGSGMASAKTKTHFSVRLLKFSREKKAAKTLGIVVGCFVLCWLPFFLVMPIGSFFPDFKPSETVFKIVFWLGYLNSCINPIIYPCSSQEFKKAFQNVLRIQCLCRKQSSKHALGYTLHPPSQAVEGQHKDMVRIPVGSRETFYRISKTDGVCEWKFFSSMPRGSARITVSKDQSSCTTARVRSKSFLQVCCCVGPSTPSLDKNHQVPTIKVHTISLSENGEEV

[1] = system: Female, Dutch Belted rabbits; experiment: Anesthetized rabbit model: intraurethral pressure (IUP) and mean arterial blood pressure (MAP); assay type: in vivo; conditions: i.v.; for durability of IUP response over time: slope of IUP response 2-7 minutes post the first peak, top 3 doses
Description: In general, IUP is the intraurethral pressure and is measured as the 2 minute mean from the first peak of the urethral response (FIG. 1). MAP is the mean arterial blood pressure and is measured as the average blood pressure during the 2 minute section where IUP is measured. The durability is the slope of the IUP response in mmHg/min and is calculated immediately after the 2 minute IUP response for 5 minutes (2-7 minutes post the first peak) for the top 3 doses.
Surgery: Female, Dutch Belted rabbits (1.20-2.0 kg, Myrtle's Rabbitry, Tenn.) were anesthetized with isoflurane (3.0% at 2 to 4 L/min) and urethane (1.5 grams/kg, s.c.). In preparation for surgery, the rabbits were shaved, scrubbed (i.e., perineal area, ventral neck, and ventral, caudal surface of the abdomen) and were administered Ringers Lactate Solution (s.c.) to maintain fluids. The femoral vein and carotid artery were isolated and cannulated with PE-50 and PE-90 tubing (Becton-Dickinson), respectively, for the administration of drugs (vein) and the measurement of blood pressure (artery). An abdominal incision was made, exposing the ureters and the bladder. The ureters were isolated and cannulated proximal to the urinary bladder with PE-50 tubing, to drain urine from the kidneys. […]
Experiment: The arterial cannula was connected to a P23XL pressure transducer (Grass Technologies, West Warwick, R.I.) and the arterial pressure transducer and Unisensor urethral transducer catheter were connected to an Gould 13-6615-50 amplifier (Data Sciences International, St. Paul, Minn.) and Gould TA6000 recorder (Data Sciences International, St. Paul, Minn.) in parallel. All data was analyzed using Power Lab Chart version 5.0.2 (ADInstruments, Colorado Springs, Colo.) data acquisition system. […]
Measurements: The change in IUP and MAP from baseline were measured as well as the slope of the IUP response. MAP was first calculated according to the following formula, where Pd is diastolic pressure and Ps is systolic pressure: MAP=Pd+⅓ (Ps−Pd). Pre-dose baseline values for IUP and MAP were assessed during a 2 min period just prior to vehicle or test compound administration. Post-dose values for IUP or MAP were determined during a 2 min period at the first peak in the IUP tracing following vehicle or test compound administration. The change in IUP and MAP induced by vehicle or test compound were then calculated by subtracting the pre-dose value from the post-dose value. The rate of decline (mmHg/min) in the IUP response was determined by taking the average slope during the 5 min. period immediately following the 2 min. efficacy measurement for the top three doses. […]

intrinsic activity, or efficacy, as a partial agonist (alpha-1A adrenoceptors; ideally between 0.35 to 0.60): 0.46 | EC50 (alpha-1A adrenoceptors; read-out: affinity, or pEC50 value (converted)): 631 nM
Structure (SMILES): Cc1c(CC2=NCCN2)ccc(NS(C)(=O)=O)c1F [Formula I, N-[4-(4,5-Dihydro-1H-imidazol-2-ylmethyl)-2-fluoro-3-methyl-phenyl]-methanesulfonamide]
maximum increase in MAP (arterial blood pressure) [1]: 10.62 mmHg | selectivity for enhancement of intraurethral pressure (IUP) over blood pressure (MAP) (Urethral Selectivity MAP/IUP = ED10 of MAP/ED10 of IUP) ([1]; at the 10 mmHg change in IUP level): 2.13 fold | durability of IUP response over time [1]: improved durability of IUP response over time | durability of IUP response over time ([1]; listed as formula I): increased durability of IUP response over time
